Test results as given in article PMC10006169, “A phase I trial of LXS196, a protein kinase C (PKC) inhibitor, for metastatic uveal melanoma” (British Journal of Cancer, 2023).

Test system: patients with MUM
Experiment: Adverse events regardless of study drug relationship
Type: in vivo, human
Protocol: Routine safety assessments, including laboratory assessments, physical examinations, vital signs and electrocardiograms (ECGs), were conducted at regular intervals throughout the study and more frequently as needed following patient assessment by the treating physician. Adverse events (AEs) were assessed continuously according to the National Cancer Institute Common Terminology Criteria for Adverse Events (NCI-CTCAE) v4.03.

CC1(N)CCN(c2cccnc2NC(=O)c2nc(-c3ncccc3C(F)(F)F)cnc2N)CC1 [LXS196]
4 (66.7) n (%): Hypotension, all grades (400 mg BID) | Patients with ≥1 AE, grade ≥3 (400 mg BID)
2 (33.3) n (%): Oedema peripheral, all grades (200 mg BID) | Asthenia, all grades (400 mg BID) | Constipation, all grades (400 mg BID) | Decreased appetite, all grades (400 mg BID)
10 (66.7) n (%): Nausea, all grades (300 mg QD)
3 (50.0) n (%): Blood creatinine increased, all grades (200 mg BID) | Diarrhoea, all grades (200 mg BID) | Nausea, all grades (200 mg BID) | Patients with ≥1 AE, grade ≥3 (200 mg BID) | ALT increased, all grades (400 mg BID) | AST increased, all grades (400 mg BID) | Diarrhoea, all grades (400 mg BID) | Nausea, all grades (400 mg BID) | Vomiting, all grades (400 mg BID)
15 (83.3) n (%): Nausea, all grades (300 mg BID (RDE))
6 (40.0) n (%): Diarrhoea, all grades (300 mg QD) | Vomiting, all grades (300 mg QD)
8 (44.4) n (%): Patients with ≥1 AE, grade ≥3 (300 mg BID (RDE)) | Vomiting, all grades (300 mg BID (RDE))
1 (25.0) n (%): ALT increased, all grades (200 mg QD) | Asthenia, all grades (200 mg QD) | Blood creatinine increased, all grades (200 mg QD) | Decreased appetite, all grades (200 mg QD) | Nausea, grade ≥3 (200 mg QD) | Oedema peripheral, all grades (200 mg QD) | Vomiting, grade ≥3 (200 mg QD)
2 (50.0) n (%): Diarrhoea, all grades (200 mg QD) | Nausea, all grades (200 mg QD) | Vomiting, all grades (200 mg QD)
1 (5.6) n (%): ALT increased, grade ≥3 (300 mg BID (RDE)) | Diarrhoea, grade ≥3 (300 mg BID (RDE)) | Oedema peripheral, grade ≥3 (300 mg BID (RDE))
1 (6.7) n (%): ALT increased, grade ≥3 (300 mg QD) | AST increased, all grades (300 mg QD) | AST increased, grade ≥3 (300 mg QD) | Dermatitis acneiform, all grades (300 mg QD) | Dry skin, all grades (300 mg QD) | Hypotension, all grades (300 mg QD) | Neutropenia, grade ≥3 (300 mg QD)
2 (11.1) n (%): AST increased, grade ≥3 (300 mg BID (RDE)) | Blood creatinine increased, all grades (300 mg BID (RDE)) | Decreased appetite, all grades (300 mg BID (RDE)) | Nasopharyngitis, all grades (300 mg BID (RDE))
2 (13.3) n (%): Abdominal pain upper, all grades (300 mg QD) | Blood creatinine increased, all grades (300 mg QD) | Oedema peripheral, all grades (300 mg QD)
2 (66.7) n (%): Diarrhoea, all grades (100 mg QD) | Nausea, all grades (100 mg QD) | Vomiting, all grades (100 mg QD)
4 (26.7) n (%): ALT increased, all grades (300 mg QD) | Constipation, all grades (300 mg QD) | Patients with ≥1 AE, grade ≥3 (300 mg QD) | Rash, all grades (300 mg QD)
3 (16.7) n (%): Abdominal pain upper, all grades (300 mg BID (RDE)) | Dermatitis acneiform, all grades (300 mg BID (RDE)) | Hypotension, all grades (300 mg BID (RDE))
11 (61.1) n (%): Diarrhoea, all grades (300 mg BID (RDE))
1 (33.3) n (%): Constipation, all grades (100 mg QD) | Oedema peripheral, all grades (100 mg QD)
0 n (%): ALT increased, all grades (100 mg QD) | ALT increased, grade ≥3 (100 mg QD) | AST increased, all grades (100 mg QD) | AST increased, grade ≥3 (100 mg QD) | Abdominal pain upper, all grades (100 mg QD) | Abdominal pain upper, grade ≥3 (100 mg QD) | Asthenia, all grades (100 mg QD) | Asthenia, grade ≥3 (100 mg QD) | Blood creatinine increased, all grades (100 mg QD) | Blood creatinine increased, grade ≥3 (100 mg QD) | Constipation, grade ≥3 (100 mg QD) | Decreased appetite, all grades (100 mg QD) | Decreased appetite, grade ≥3 (100 mg QD) | Dermatitis acneiform, all grades (100 mg QD) | Dermatitis acneiform, grade ≥3 (100 mg QD) | Diarrhoea, grade ≥3 (100 mg QD) | Dry skin, all grades (100 mg QD) | Dry skin, grade ≥3 (100 mg QD) | Fatigue, all grades (100 mg QD) | Fatigue, grade ≥3 (100 mg QD) | Hypotension, all grades (100 mg QD) | Hypotension, grade ≥3 (100 mg QD) | Nasopharyngitis, all grades (100 mg QD) | Nasopharyngitis, grade ≥3 (100 mg QD) | Nausea, grade ≥3 (100 mg QD) | Neutropenia, all grades (100 mg QD) | Neutropenia, grade ≥3 (100 mg QD) | Oedema peripheral, grade ≥3 (100 mg QD) | Patients with ≥1 AE, grade ≥3 (100 mg QD) | Rash, all grades (100 mg QD) | Rash, grade ≥3 (100 mg QD) | Vomiting, grade ≥3 (100 mg QD) | ALT increased, grade ≥3 (200 mg BID) | AST increased, grade ≥3 (200 mg BID) | Abdominal pain upper, all grades (200 mg BID) | Abdominal pain upper, grade ≥3 (200 mg BID) | Asthenia, grade ≥3 (200 mg BID) | Blood creatinine increased, grade ≥3 (200 mg BID) | Constipation, grade ≥3 (200 mg BID) | Decreased appetite, grade ≥3 (200 mg BID) | Dermatitis acneiform, grade ≥3 (200 mg BID) | Diarrhoea, grade ≥3 (200 mg BID) | Dry skin, grade ≥3 (200 mg BID) | Fatigue, all grades (200 mg BID) | Fatigue, grade ≥3 (200 mg BID) | Hypotension, all grades (200 mg BID) | Hypotension, grade ≥3 (200 mg BID) | Nasopharyngitis, grade ≥3 (200 mg BID) | Nausea, grade ≥3 (200 mg BID) | Neutropenia, grade ≥3 (200 mg BID) | Oedema peripheral, grade ≥3 (200 mg BID) | Rash, all grades (200 mg BID) | Rash, grade ≥3 (200 mg BID) | Vomiting, all grades (200 mg BID) | Vomiting, grade ≥3 (200 mg BID) | ALT increased, grade ≥3 (200 mg QD) | AST increased, all grades (200 mg QD) | AST increased, grade ≥3 (200 mg QD) | Abdominal pain upper, all grades (200 mg QD) | Abdominal pain upper, grade ≥3 (200 mg QD) | Asthenia, grade ≥3 (200 mg QD) | Blood creatinine increased, grade ≥3 (200 mg QD) | Constipation, grade ≥3 (200 mg QD) | Decreased appetite, grade ≥3 (200 mg QD) | Dermatitis acneiform, all grades (200 mg QD) | Dermatitis acneiform, grade ≥3 (200 mg QD) | Diarrhoea, grade ≥3 (200 mg QD) | Dry skin, all grades (200 mg QD) | Dry skin, grade ≥3 (200 mg QD) | Fatigue, all grades (200 mg QD) | Fatigue, grade ≥3 (200 mg QD) | Hypotension, all grades (200 mg QD) | Hypotension, grade ≥3 (200 mg QD) | Nasopharyngitis, all grades (200 mg QD) | Nasopharyngitis, grade ≥3 (200 mg QD) | Neutropenia, all grades (200 mg QD) | Neutropenia, grade ≥3 (200 mg QD) | Oedema peripheral, grade ≥3 (200 mg QD) | Rash, all grades (200 mg QD) | Rash, grade ≥3 (200 mg QD) | Abdominal pain upper, grade ≥3 (300 mg BID (RDE)) | Asthenia, grade ≥3 (300 mg BID (RDE)) | Blood creatinine increased, grade ≥3 (300 mg BID (RDE)) | Constipation, grade ≥3 (300 mg BID (RDE)) | Decreased appetite, grade ≥3 (300 mg BID (RDE)) | Dermatitis acneiform, grade ≥3 (300 mg BID (RDE)) | Dry skin, grade ≥3 (300 mg BID (RDE)) | Fatigue, grade ≥3 (300 mg BID (RDE)) | Hypotension, grade ≥3 (300 mg BID (RDE)) | Nasopharyngitis, grade ≥3 (300 mg BID (RDE)) | Nausea, grade ≥3 (300 mg BID (RDE)) | Neutropenia, all grades (300 mg BID (RDE)) | Neutropenia, grade ≥3 (300 mg BID (RDE)) | Rash, grade ≥3 (300 mg BID (RDE)) | Vomiting, grade ≥3 (300 mg BID (RDE)) | Abdominal pain upper, grade ≥3 (300 mg QD) | Asthenia, grade ≥3 (300 mg QD) | Blood creatinine increased, grade ≥3 (300 mg QD) | Constipation, grade ≥3 (300 mg QD) | Decreased appetite, all grades (300 mg QD) | Decreased appetite, grade ≥3 (300 mg QD) | Dermatitis acneiform, grade ≥3 (300 mg QD) | Diarrhoea, grade ≥3 (300 mg QD) | Dry skin, grade ≥3 (300 mg QD) | Fatigue, grade ≥3 (300 mg QD) | Hypotension, grade ≥3 (300 mg QD) | Nasopharyngitis, grade ≥3 (300 mg QD) | Nausea, grade ≥3 (300 mg QD) | Oedema peripheral, grade ≥3 (300 mg QD) | Rash, grade ≥3 (300 mg QD) | Vomiting, grade ≥3 (300 mg QD) | Abdominal pain upper, all grades (400 mg BID) | Abdominal pain upper, grade ≥3 (400 mg BID) | Asthenia, grade ≥3 (400 mg BID) | Blood creatinine increased, all grades (400 mg BID) | Blood creatinine increased, grade ≥3 (400 mg BID) | Constipation, grade ≥3 (400 mg BID) | Decreased appetite, grade ≥3 (400 mg BID) | Dermatitis acneiform, grade ≥3 (400 mg BID) | Diarrhoea, grade ≥3 (400 mg BID) | Dry skin, grade ≥3 (400 mg BID) | Fatigue, grade ≥3 (400 mg BID) | Nasopharyngitis, all grades (400 mg BID) | Nasopharyngitis, grade ≥3 (400 mg BID) | Nausea, grade ≥3 (400 mg BID) | Neutropenia, grade ≥3 (400 mg BID) | Oedema peripheral, grade ≥3 (400 mg BID) | Rash, grade ≥3 (400 mg BID) | Vomiting, grade ≥3 (400 mg BID)
4 (100) n (%): Patients with ≥1 AE, all grades (200 mg QD)
14 (93.3) n (%): Patients with ≥1 AE, all grades (300 mg QD)
5 (27.8) n (%): ALT increased, all grades (300 mg BID (RDE)) | Oedema peripheral, all grades (300 mg BID (RDE)) | Rash, all grades (300 mg BID (RDE))
8 (53.3) n (%): Fatigue, all grades (300 mg QD)
6 (100) n (%): Patients with ≥1 AE, all grades (200 mg BID) | Patients with ≥1 AE, all grades (400 mg BID)
6 (33.3) n (%): Fatigue, all grades (300 mg BID (RDE))
3 (100) n (%): Patients with ≥1 AE, all grades (100 mg QD)
3 (20.0) n (%): Asthenia, all grades (300 mg QD) | Nasopharyngitis, all grades (300 mg QD) | Neutropenia, all grades (300 mg QD)
1 (16.7) n (%): ALT increased, all grades (200 mg BID) | AST increased, all grades (200 mg BID) | Asthenia, all grades (200 mg BID) | Constipation, all grades (200 mg BID) | Decreased appetite, all grades (200 mg BID) | Dermatitis acneiform, all grades (200 mg BID) | Dry skin, all grades (200 mg BID) | Nasopharyngitis, all grades (200 mg BID) | Neutropenia, all grades (200 mg BID) | ALT increased, grade ≥3 (400 mg BID) | AST increased, grade ≥3 (400 mg BID) | Dermatitis acneiform, all grades (400 mg BID) | Dry skin, all grades (400 mg BID) | Fatigue, all grades (400 mg BID) | Hypotension, grade ≥3 (400 mg BID) | Neutropenia, all grades (400 mg BID) | Oedema peripheral, all grades (400 mg BID) | Rash, all grades (400 mg BID)
4 (22.2) n (%): AST increased, all grades (300 mg BID (RDE)) | Asthenia, all grades (300 mg BID (RDE)) | Constipation, all grades (300 mg BID (RDE)) | Dry skin, all grades (300 mg BID (RDE))
3 (75.0) n (%): Constipation, all grades (200 mg QD) | Patients with ≥1 AE, grade ≥3 (200 mg QD)
18 (100) n (%): Patients with ≥1 AE, all grades (300 mg BID (RDE))
